The values below come from ChEMBL document CHEMBL6078614, “Privileged small molecules against neglected tropical diseases: A perspective from structure activity relationships” (Eur J Med Chem, 2024).

Molecules are shown by their SMILES. ≈ marks a conversion by molar mass, not a printed value.

Assay [1] concerns Trypanosoma cruzi. The assay is described as follows: Antitrypanosomal activity against Trypanosoma cruzi Tulahuen amastigotes. It counts as functional, organism-based.
Assay [2] relates to Leishmania major. The assay is described as follows: Antileishmanial activity against Leishmania major. Format: functional, organism-based.
The subject of assay [3] is Leishmania major. The assay can be described thus: Antileishmanial activity against Leishmania major amastigotes assessed as inhibition of parasite growth incubated for 48 hrs by alamar blue reagent based ELISA. It counts as functional, organism-based.
Assay [4] concerns Trypanosoma cruzi. The assay is described as follows: Antitrypanosomal activity against trypomastigote form of Trypanosoma cruzi Y assessed as inhibition of parasite viability. Format: functional, organism-based.
Another assay relates to Leishmania chagasi. The assay is described as follows: Antileishmanial activity against Leishmania chagasi. Format: functional, organism-based.
For a further assay, the system named is Entamoeba histolytica. The assay is described as follows: Antiparasitic activity against Entamoeba histolytica. It counts as functional, organism-based.
In assay [5] the test system is Trypanosoma brucei rhodesiense. The assay is described as follows: Antitrypanosomal activity against Trypanosoma brucei rhodesiense. It counts as functional, organism-based.
A further assay deals with Leishmania mexicana. The assay can be described thus: Antileishmanial activity against Leishmania mexicana promastigotes assessed as reduction in parasite growth by alamar-blue staining based analysis. Format: functional, organism-based.
The target of a further assay is Phosphodiesterase 4 (Homo sapiens, UniProt P27815+Q08499+Q07343+Q08493). The assay is described as follows: Inhibition of PDE4 (unknown origin). Format: protein assay.
A further assay deals with Leishmania braziliensis. The assay can be described thus: Antileishmanial activity against Leishmania braziliensis. Format: functional, organism-based.
Assay [6] deals with Leishmania major. The assay can be described thus: Antileishmanial activity against Leishmania major IR-173 promastigotes assessed as inhibition of parasite growth incubated for 24 hrs by resazurin dye based assay. It counts as functional, organism-based. Conditions: IR-173, 24 h. (Alamar Blue is a resazurin reagent that responds to reducing activity.)
The test system of assay [7] is Leishmania major. The assay is described as follows: Antileishmanial activity against Leishmania major IR-173 promastigotes assessed as inhibition of parasite growth incubated for 48 hrs by resazurin dye based assay. It counts as functional, organism-based. The conditions noted are these: IR-173, 48 h.
In the next assay the test system is Trypanosoma brucei. The assay is described as follows: Antitrypanosomal activity against Trypanosoma brucei. Format: functional, organism-based.
A further assay has as its system Leishmania donovani. The assay is described as follows: Antileishmanial activity against amastigote form of Leishmania donovani infected in BALB/c mouse assessed as inhibition of parasite growth in spleen at 25 mg/kg, po measured after 5 days by geimsa staining based analysis relative to control. It counts as functional. On the set-up: scale not given: the % may be the effect or the level left. Conditions: time 5 day.

A further assay concerns Leishmania infantum. The assay can be described thus: Inhibition of Leishmania infantum Arginase expressed in Escherichia coli BL21 (DE3) at 50 uM by enzymatic assay relative to control.
The next assay relates to HeLa. The assay is described as follows: Cytotoxicity against human HeLa cells assessed as reduction in cell viability incubated for 24 hrs by MTT assay. Format: functional. For orientation: Formazan colour is commonly taken as a measure of viable cells.
Assay [8] has as its system Trypanosoma cruzi. The assay can be described thus: Antiprotozoal activity against Trypanosoma cruzi epimastigotes assessed as reduction in parasite growth. Format: functional, organism-based.

Take `COc1ccc2c(-c3ccnc(Nc4cccc(C#N)c4)n3)c(CO)nn2n1`: in the assay with Trypanosoma cruzi [1], the concentration for a half-maximal effect (EC50) stood at 7.2 µM.

On to `O=[N+]([O-])c1ccc(-c2nnc(N3CCC(O)CC3)s2)o1`, for which, in the assay on Leishmania major [2], the IC50 amounted to 68.9 µM.

In the assay on Trypanosoma cruzi [1], `O=C(Nc1cc2nc(-c3ccc(F)c(F)c3)cn2cn1)N1CC[C@H](F)C1` returned an EC50 of 0.73 µM.

With `CCCCCCCCCc1cn(CCN2CCN(C(=O)c3c(C)nc4cc(C)ccn34)CC2)nn1`, the half-maximal inhibitory concentration (IC50) with Leishmania major [3] was 15.1 µM.

As to `Brc1ccc(-n2cc(C3=NCCS3)cn2)cc1`, the IC50 with Trypanosoma cruzi [4] worked out at 2.1 µM.

In the assay on Leishmania chagasi, `N=C(N)N/N=C/c1ccccc1-c1ccccc1` came in with a half-inhibitory concentration (IC50) of 4.97 µM.

`CC(C)Cc1ccc(C(C)C(=O)O)cc1` (stereo unspecified) [IBUPROFEN] registered a half-maximal inhibitory concentration (IC50) with Entamoeba histolytica of 0.172 µM.

In the case of `CCc1ccc(-n2cc(CCN3CCN(C(=O)c4c(C)nc5cc(C)ccn45)CC3)nn2)cc1`, in the assay with Leishmania major [3], the 50% inhibitory concentration (IC50) worked out at 15.1 µM.

In turn, `COc1cc(/C=C/C(=O)CC(=O)/C=C/c2ccc(O)c(OC)c2)ccc1O` [CURCUMIN] gave an EC50 in [5] of 4.85 µM.

As to `c1ccc(-c2cnc3c(n2)CCCC3)cc1`, in the assay with Leishmania mexicana, the concentration for half-maximal inhibition (IC50) came out at 39.8 µM.

In the assay on Trypanosoma cruzi [1], `O=C(Nc1cc2nc(-c3cccc(C(F)(F)F)c3)cn2cn1)N1CC[C@H](F)C1` displayed a concentration for a half-maximal effect (EC50) of 0.08 µM.

`CC(C)c1ccc(S(=O)(=O)/N=N/Cc2ccc([N+](=O)[O-])o2)cc1`: in the assay on Leishmania major [3], the half-maximal inhibitory concentration (IC50) turned out to be 4.71 µM.

The compound `Cc1ccc(C(=O)NC(=S)NCc2ccco2)cc1` showed a concentration for half-maximal inhibition (IC50) with Leishmania major [2] of 38.5 µg/mL.

As for `N=C(N)N/N=C/c1ccc2ccccc2n1`, the IC50 with Leishmania chagasi stood at 0.6 µM.

Compound `COc1ccc(C(=O)NC(=S)Nc2nc(-c3ccccc3)c(C)s2)cc1` returned a half-maximal inhibitory concentration (IC50) with Leishmania major [2] of 38.5 µg/mL.

Consider `Cc1ccn2c(C(=O)N3CCN(CCc4cn(-c5ccc(Br)cc5)nn4)CC3)c(C)nc2c1`, for which the half-maximal inhibitory concentration (IC50) in the assay with Leishmania major [3] is 15.1 µM.

Take `COc1ccc(C2=NN(C(C)C)C(=O)C2(C)C)cc1-c1ccncc1`: on Phosphodiesterase 4, the pIC50 turned out to be 5.8.

As for `NNc1nc(-c2ccccc2Cl)nc2ccccc12`, the half-inhibitory concentration (IC50) with Leishmania braziliensis came to 8.43 µM.

With `Cn1ccnc1-c1nnc(-c2ccc([N+](=O)[O-])s2)s1`, the figures for the IC50 in the assay on Leishmania major [6] and with Leishmania major [7] were 11.2 µg/mL (≈ 38.2 µM) and 7.1 µg/mL (≈ 24.2 µM), respectively.

In the case of `N=C(S)N/N=C/c1ccc(C(F)(F)F)cc1`, in the assay on Leishmania chagasi, the IC50 worked out at 3.2 µM.

For `NCCCC(N)(C(=O)O)C(F)F` (stereo unspecified) [EFLORNITHINE], in the assay on Trypanosoma brucei, a half-maximal effect (EC50) was put at 13 µM.

As for `CCCCCCCCCCCCCCCCOP(=O)([O-])OCC[N+](C)(C)C` [MILTEFOSINE], the Activity in the assay with Leishmania donovani is given as >98%.

In the assay with Entamoeba histolytica, `COc1ccc2c(c1)c(CC(=O)O)c(C)n2C(=O)c1ccc(Cl)cc1` [INDOMETHACIN] gave an IC50 of 0.22 µM.

`Cc1nc(C)c(C(=O)Nc2ccc(F)c(-c3nc4ncc(-c5ccccc5Cl)cn4n3)c2)o1`: the concentration for a half-maximal effect (EC50) with Trypanosoma cruzi [1] worked out at 0.02 µM.

For `NNc1nc(-c2ccc(F)cc2)nc2ccccc12`, the IC50 in the assay with Leishmania braziliensis amounted to 7.41 µM.

In the assay on Leishmania infantum, `COc1cccc(-c2nc3sccn3c2-c2ccnc(NCCNC(=O)Nc3cccc(C(F)(F)F)c3)n2)c1` gave an inhibition of 69.2%. The same compound displayed an IC50 with Leishmania chagasi of 30 µM.

With `Cc1ccn2c(C(=O)N3CCN(CCc4cn(-c5cccc(Cl)c5)nn4)CC3)c(C)nc2c1`, the IC50 in the assay with Leishmania major [3] was determined as 15.1 µM. Moreover, the CC50 with HeLa was found to be 62.7 µM.

In the case of `NC(=O)Nc1cc2nc(-c3cccc(C(F)(F)F)c3)cn2cn1`, in the assay with Trypanosoma cruzi [1], the half-maximal effective concentration (EC50) was > 20 µM.

For `c1ccc(-c2cnc3ccccc3n2)cc1`, the half-maximal inhibitory concentration (IC50) in the assay on Leishmania mexicana is 12.5 µM.

In the case of `O=C(Cn1ccnc1[N+](=O)[O-])NCc1ccccc1` [BENZNIDAZOLE], a half-maximal effect in the assay on Trypanosoma brucei (EC50) was put at 1.94 µM.

Take `COc1ccc(C2=NN(C(C)C)C(=O)C2(C)C)cc1OCc1ccccc1`: the negative-log IC50 (pIC50) against Phosphodiesterase 4 is given as 6.8.

For the compound `Cc1ccc(N2Cc3cc(NC(=O)N4CCN(c5cccc(C(F)(F)F)c5)CC4)ccc3C2=O)cc1`, in the assay on Trypanosoma cruzi [8], the 50% inhibitory concentration (IC50) is 0.04 µM.

In the assay with Leishmania braziliensis, `CN1CCN(c2nn3c(-c4cccc([N+](=O)[O-])c4)nnc3c3ccccc23)CC1` showed an IC50 of 9.37 µM.

The term EC50 denotes the concentration needed to bring the measured effect to its halfway point. One may read the IC50 as the concentration that gives 50% inhibition. The term pIC50 denotes −log10 of the IC50, conventionally taken in molar units. By inhibition is commonly meant the share of the control response that was lost under treatment. One may read the CC50 as the concentration that lowers cell viability or growth by half.
